{"source": "paper PMC9406419", "about": "“OATD-02 Validates the Benefits of Pharmacological Inhibition of Arginase 1 and 2 in Cancer” (Cancers, 2022)", "system": "Renca tumours", "experiment": "Syngeneic Renca renal adenocarcinoma model with plasma L-arginine and tumour flow cytometry", "type": "in vivo, mouse", "method": "CT26 and K562 in vivo experiments were conducted at Molecure SA. All experimental procedures were approved by the 1st Local Ethics Committee in Warsaw (Poland). For the syngeneic CT26 model, 7–8-week old BALB/c females (n = 9–18 per group, BALB/cAnNCrl, Charles River Laboratories) were injected subcutaneously in the right flank with 5 × 10^5 CT26 cells. […] Anti-PD-L1 antibody (InVivoPlus anti-mouse PD-L1, clone 10F.9G2, BioXCell, lot 615416D1) was injected intraperitoneally at 2.5 mg/kg on days: 8, 10, 12, 14 and 16 post tumour cells inoculation. Control groups received vehicle (saline) or isotype antibody (InVivoPlus rat IgG2b, anti-KLH, BioXCell, lot 629816D1). For the xenograft K562 model, 7–8 week-old athymic nude mice (n = 8–11 per group, Crl:NU(NCr)-Foxn1^nu, Charles River Laboratories) or NK cell-deficient Fox Chase SCID Beige mice (n = 10–12 per group, CB17.Cg-Prkdc^scidLyst^bg-J/Crl, Charles River Laboratories) were injected subcutaneously in the right flank with 1 × 10^7 K562 cells. […] Tumour volume measured by a digital calliper (width × length × depth × π/6) was recorded three times per week. Animals were euthanized when tumours were necrotized or volume exceeded 2000 mm^3. Renca in vivo efficacy study was performed at Crown Biosciences Inc. (Taicang, China). All experimental procedures on animals were approved by the Institutional Animal Care and Use Committee (IACUC) and conducted in accordance with the regulations of the Association for Assessment and Accreditation of Laboratory Animal Care (AAALAC). For the syngeneic Renca model, 6–7 week-old BALB/c females (n = 12 per group, Shanghai Lingchang Biotechnology, Shanghai, China) were injected subcutaneously in the right flank with 1 × 10^6 Renca cells. Tumour volumes (length × width^2 × 0.5) were measured twice per week. OATD-02 was dosed twice per day at 75 mg/kg by oral gavage. A dosing holiday was given to individuals with bodyweight loss exceeding 15% of the initial body weight and the treatment was resumed when the bodyweight loss recovered to less than 10%. Due to the cachexic nature of the Renca model, all animals were supplemented with DietGel to help maintain their body weight.\nDissected tumours were dissociated to obtain single-cell suspensions for antibody staining and immune cell assessment. Prior to the antibody staining, dead cells were labelled with the Fixable Viability Due eFluor™ 780 (eBiosciences, San Diego, CA, USA). The following anti-mouse antibodies were used for flow cytometry: anti-CD45-FITC (clone 30-F11, Biolegend, San Diego, CA, USA), anti-CD3-BUV395 (clone 145-2C11, BD), anti-CD4-BV421 (clone GK1.5, Biolegend), anti-CD8-PE-eFluor610 (clone 53-6.7, eBiosciences), anti-Foxp3-PE (clone FJK-16S, eBiosciences), anti-CD11b-PE-Cy7 (clone M1/70, Biolegend), anti-F4/80-BV510 (clone BM8, Biolegend), and anti-Gr1-APC (clone RB6-8C5, Biolegend).\nThe concentrations of OATD-02, the reference ARGi or L-arginine were determined in plasma samples or tumour homogenates using liquid chromatography coupled with tandem mass spectrometry (LC-MS/MS). Sample preparation was based on protein precipitation using acetonitrile. The resulting supernatants were analysed using hydrophilic interaction liquid chromatography (HILIC) with subsequent MS detection based on optimised MRM transitions. Matrix-matched calibration and quality control samples were prepared for quantification of OATD-02 and the reference ARGi. Due to the endogenous character of L-arginine, a surrogate matrix was used for its detection.\nAll statistical analyses were performed using GraphPad Prism (ver. 9, GraphPad Software, Inc., San Diego, CA, USA). Data sets with normal distribution were described as means with SEM (standard error of the mean). Otherwise, the median value was shown and the U Mann–Whitney or the Kruskal–Wallis tests were applied for intergroup comparisons. Differences at p-value less than 0.05 were considered statistically significant. […]", "data": [{"smiles": "CN(C)C[C@@H]1CC[C@@H](CCB(O)O)C[C@]1(N)C(=O)O", "note": "[OATD-02]", "values": [{"measurement": "TGI, syngeneic Renca model", "setting": "75 mg/kg PO BID from day 1, day 22 post-inoculation, not statistically significant", "result": 31, "unit": "%"}, {"measurement": "levels of Tregs in the tumour microenvironment", "setting": "Renca tumours, flow cytometry, Foxp3+ within CD4+ T cells, p = 0.0196", "result": "decreased levels"}, {"measurement": "levels of MDSCs in the tumour microenvironment", "setting": "Renca tumours, flow cytometry, p = 0.0173", "result": "decreased levels"}, {"measurement": "CD8+/Treg cell ratio", "setting": "Renca tumours, flow cytometry, p = 0.0281", "result": "beneficial increase"}, {"measurement": "levels of neutrophils in the tumour microenvironment", "setting": "Renca tumours, flow cytometry, p = 0.0284", "result": "decreased levels"}, {"measurement": "fold increase in plasma L-arginine", "setting": "Renca-bearing mice, 75 mg/kg PO BID, 16 h upon last dose", "result": 6.6, "unit": "fold"}]}]}
